{
  "source": "patent US20030138394A1",
  "about": "“Cosmetic and/or pharmaceutical preparations that contain an extract of the plant argania spinosa” (priority 2000, published 2003)",
  "test_system": "human adipocytes",
  "assay": "Lipolysis activity on human adipocytes (released glycerol)",
  "format": "cell-based",
  "conditions": "30 mM; 90 minutes at 37° C.; reference medium = 0",
  "description": "Method: The adipocytes were isolated from human subcutaneous tissue, as corresponds to the general technique in accordance with Rodbell. The extract as in\nExample 1 or the comparison substances are dissolved in the reference medium and then brought into contact with the isolated adipocytes for 90 minutes at 37° C. In each case one adipocyte preparations [sic] was analyzed. The percentage increase in released glycerol in the supernatant of the medium was determined by means of spectrophotometry in accordance with the method by Carpéné et al. The reference administered was the medium without substance to be analyzed and was set equal to 0.",
  "data": [
    {"smiles": "Cn1c(=O)c2c(ncn2C)n(C)c1=O", "note": "[Caffeine]", "values": [
      {"measurement": "% increase in released glycerol", "result": 181, "unit": "%"}
    ]}
  ]
}
